# How the values were obtained:
# [1] = test system: iniB promoter; assay type: cell-based, BCG; details: for Induction of the iniB promoter at 24 hours: BCG containing the iniB/lacZ construct; for Induction of the iniB promoter at 24 hours / iniA gene induction / effect on iniA transcription: FIG. 4; for iniA gene induction / effect on iniA transcription: amino acids; for iniB promoter induction: 213 base pair iniB promoter in lacz reporter construct
# [2] = test system: iniA; assay: Northern blot of iniA induction after antibiotic treatment; assay type: cell-based; details: total RNA from M. tuberculosis cultured with or without antibiotics; FIG. 1
# Method: Autoradiographs of a Northern blot containing RNA from M. tuberculosis cultures treated either with no antibiotics; isoniazid 0.01 μg/ml; isoniazid 0.1 μg/ml; isoniazid 1 μg/ml; ethambutol 5 μg/ml; streptomycin 5 μg/ml; and rifampin 5 μg/ml. The blots were hybridized first with an iniA DNA probe (top) to examine iniA induction; the blot was then stripped and re-hybridized with a 16S probe (bottom) to confirm equal RNA loading.
# Mycobacterial cultures were grown to mid log phase in Middlebrook 7H9 media supplemented with OADC, 0.05% Tween 80, and cyclohexamide (18) (for some experiments antibiotics were added for the last 18 hours), pelleted, resuspended in chloroform/methanol 3:1, and vortexed for 60 seconds or until the formation of an interface. RNA was extracted with five volumes of Triazole (Life Technologies, Gaithersburg, Md.), the aqueous layer precipitated in isopropanol, redissolved in 4M GTC and extracted a second time with Triazole.
# Five μg of each RNA sample were analyzed by northern blot with Northern Max kits (Ambion, Austin, Tex.) in a 1% denaturing agarose gel, probed with inserts of differentially expressed plasmids labeled by random priming with [α^32P] dCTP, and visualized by autoradiography.
# [3] = test system: asd; assay type: cell-based, M. tuberculosis strain Erdman; details: RT PCR; isoniazid added for the last 18 hours; FIG. 2A
# [4] = test system: iniA; assay type: cell-based, M. tuberculosis strain Erdman; details: RT PCR; isoniazid added for the last 18 hours; FIG. 2A
SMILES,Induction of the iniB promoter at 24 hours [1],iniB promoter induction ([1]; FIG. 3),iniA induction (Northern blot) [2],further results
C[C@H](O)[C@@H](N)C(=O)O [D-threonine],comparable to that of isoniazid and Unisyn,,,iniA gene induction / effect on iniA transcription [1]: induced
C[C@@H](O)[C@H](N)C(=O)O [L-threonine],did not cause induction,,,iniA gene induction / effect on iniA transcription [1]: minimal effect
N[C@@H]1CON=C1O [cycloserine],,induced,,
CC[C@@H](CO)NCCN[C@@H](CC)CO [ethambutol],,induced,strongly induced,
NCC(=O)O [gylcine],Modest induction,,,
NNC(=O)c1ccncc1 [isoniazid],,induced,strongly induced,asd repression [3]: 17 fold; iniA induction by densitometry [4]: 70 fold
CO[C@H]1/C=C/O[C@@]2(C)Oc3c(C)c(O)c4c(O)c(c(/C=N/N5CCN(C)CC5)c(O)c4c3C2=O)NC(=O)/C(C)=C\C=C\[C@H](C)[C@H](O)[C@@H](C)[C@@H](O)[C@@H](C)[C@H](OC(C)=O)[C@@H]1C [rifampin],,,not,"Reversal of iniB promoter induction by co-administration ([1]; co-administration with inducing antibiotic, FIG. 3): can be reversed"
[H]/N=C(/N)N[C@H]1[C@H](O)[C@@H](O)[C@H](O[C@@H]2O[C@@H](C)[C@](O)(C=O)[C@H]2O[C@@H]2O[C@@H](CO)[C@H](O)[C@@H](O)[C@@H]2NC)[C@@H](N/C(N)=N\[H])[C@@H]1O [streptomycin],,,not,

# Reference: patent US6821769B2, “IniB, iniA and iniC genes of mycobacteria and methods of use” (priority 1998, dated 2004)
